“And” between values parts separate entries of the source, which are not always exact repeats. Equal entries are not always repeated. Where two headings read alike, the source gives them in different places.
What was measured:
[1] = tested on: HCT116 colon carcinoma; parameters: method as in doi:10.1039/c3nj00513e; details: MTT; ref [6]; cited from earlier work
[2] = tested on: K562 leukemia cells; parameters: method as in doi:10.1039/c3nj00513e; details: MTT; ref [6]; cited from earlier work
[3] = tested on: Normal human skin fibroblast cells; parameters: method as in doi:10.1039/c3nj00513e; details: MTT; ref [6]; read-out: IC50 FIBRO; cited from earlier work
[4] = tested on: Normal human skin fibroblast cells; experiment: MTT assay, cytotoxicity on normal fibroblasts (control); assay type: cell-based; details: up to 100 μM; for IC50: MTT, 72 h incubation, mean of three independent experiments ± SD, IC50 > 100 means inhibition <10% at 100 μM, read-out: IC50 FIBRO
Experimental: (§1) All conjugated compounds prepared via click chemistry and listed in Table 1 were evaluated in vitro for their cytotoxic activity against K562 leukemia cells and the colon cancer cell line HCT116. Normal human skin fibroblast cells were chosen as a control and cisplatin served as a reference compound. The cytotoxicity was evaluated using the MTT assay (details are reported in the Materials and Methods section). In all experiments the cell growth inhibition of K562 and HCT116 was determined for each compound at concentrations of 10, 25 and 50 μM after 72 h of treatment and up to 100 μM in the case of fibroblasts.
(§2) The antiproliferative activity of the compounds was tested using the 3-(4,5-dimethylthiozol-2-yl)2,5-diphenyltetrazolium bromide solution (MTT) assay. K562 and HCT116 were seeded in triplicate in 96-well trays respectively at the density of 5 × 10^3 and 10^4 in 50 μL of complete medium. Stock solutions (50 mM) of each compound were made in DMSO and diluted in complete medium to give final concentrations of 50, 25 and 10 μM. Untreated cells were placed in every plate as a negative control. The cells were exposed to the compounds, in 100 μL total volume, for 72 h.

[5] = tested on: HCT116 colon carcinoma; experiment: MTT assay, cell growth inhibition of HCT116 colon carcinoma; assay type: cell-based; details: for cytotoxicity against HCT116 (in words): 10, 25 and 50 μM, 72 h; for IC50: MTT, 72 h incubation, mean of three independent experiments ± SD, IC50 > 50 means inhibition <20% at 50 μM
Experimental: as §1
(§3) Cell growth inhibition assays were carried out using the leukemia cell line K562 and colon carcinoma HCT116. Cell lines were obtained from ATCC (Manassas, VA, USA) and maintained in RPMI 1640, supplemented with 10% fetal bovine serum (FBS), penicillin (100 Units mL^−1), streptomycin (100 μg mL^−1) and glutamine (2 mM) (complete medium); the pH of the medium was 7.2 and the incubation was performed at 37 °C in a 5% CO2 atmosphere. Adherent cells were routinely used at 70% of confluence and passaged every 3 days by treatment with 0.05% Trypsin-EDTA (Lonza, Walkersville, MD, USA). K562 cells were routinely fed every 3 days.
as §2

[6] = tested on: K562 leukemia cells; experiment: MTT assay, cell growth inhibition of K562 leukemia cells; assay type: cell-based; details: for cytotoxicity against K562 (in words): 10, 25 and 50 μM
Experimental: as §1, §3, §2

[7] = tested on: K562 cells; experiment: Annexin V-FITC/PI apoptosis assay by flow cytometry; assay type: cell-based; details: 25 and 50 μM, 24 h
Experimental: In this study we also tested in vitro the nucleoside-alkyne derivatives (namely ALK-A, ALK-G, ALK-dG and ALK-dU) and the N3-BA building blocks (namely 3α-N3-CDC, 3α-N3-UDC, 3α-N3-TUDCA, 23-N3-nor-CDC and 23-N3-nor-UDC). […] (Table 1). To determine whether the antiproliferative activity induced by dA-nor-CDC was related to apoptosis, as previously reported for the corresponding dA-CDC conjugate, K562 cells were treated with compound dA-nor-CDC (25 and 50 μM) for 24 h, then assayed by flow cytometry analysis with Annexin V-FITC staining.
The percentage of apoptotic cells was assessed using the Annexin V assay (Clontech Laboratories, Inc. A Takara Bio Company, Mountain View, CA, USA). Propidium iodide (PI) was used to avoid necrotic cell detection (Annexin−/PI+). The drug-induced apoptotic rate (Annexin+/PI− and Annexin V+/PI+) was compared with the apoptosis in the absence of the drugs used as control (spontaneous apoptosis). K562 cells were cultured in RPMI + 10% FBS in a 6-weels plate for 24 h in the presence of compounds dA-nor-CDC at concentration of 50 and 25 μM. […] Incubation with annexin V for 15 min on ice in dark was directly followed by flow cytometric analysis of the cells with a FACScan (Becton Dickinson, San Jose, CA, USA) at 488 nm and quantified using the Cell Quest Pro software (Becton Dickinson).

[8] = Homo sapiens, Skin fibroblast, 72 h
[9] = Homo sapiens, K562, 72 h, MTT, 72 h incubation, mean of three independent experiments ± SD, IC50 > 50 means inhibition <20% at 50 μM, read-out: IC50 K562
[10] = MTT, 72 h incubation, mean of three independent experiments ± SD, IC50 > 50 means inhibition <20% at 50 μM, read-out: IC50 K562

| Compound | IC50 [4, 8] | IC50 ([5]; Homo sapiens, HCT-116, 72 h) | IC50 [6, 9] | also measured |
| --- | --- | --- | --- | --- |
| COC(=O)CCC(C)[C@H]1CCC2C3C(CC[C@@]21C)[C@@]1(C)CC[C@@H](n2cc(CCCCC#Cc4nc5c(N)ncnc5n4[C@H]4C[C@H](O)[C@@H](CO)O4)nn2)CC1C[C@H]3O (stereo partly drawn) [dA-CDC] |  |  |  | IC50 [1]: > 200 µM; IC50 [2]: 8.5 ± 4 µM; IC50 [3]: > 200 µM |
| COC(=O)CC[C@@H](C)[C@H]1CC[C@H]2[C@@H]3[C@@H](O)C[C@@H]4C[C@H](N=[N+]=[N-])CC[C@]4(C)[C@H]3CC[C@]12C [3α-N3-UDC, methyl 3α-azido-7β-hydroxy-5β-cholan-24-oate] | > 100 µM | 22 ± 1.5 µM | 25 ± 1 µM | cytotoxicity towards fibroblast cells (in words) ([4]; 72 h): not active; cytotoxicity against HCT116 (in words) [5]: active; cytotoxicity against K562 (in words) ([6]; 72 h): active |
| CC(CCN=[N+]=[N-])[C@H]1CCC2C3C(CC[C@@]21C)[C@@]1(C)CC[C@@H](O)CC1C[C@H]3O (stereo partly drawn) [23-N3-nor-CDC, 3α,7α-Dihydroxy-5β-23-azido-24-norcholane] | 79 ± 3.1 µM | 25 ± 2 µM | 21 ± 1.2 µM |  |
| CC(CCC(=O)NCCS(=O)(=O)O)[C@H]1CCC2C3C(CC[C@@]21C)[C@@]1(C)CC[C@@H](n2cc(CCCCC#Cc4nc5c(=O)[nH]c(N)nc5n4[C@H]4C[C@H](O)[C@@H](CO)O4)nn2)CC1C[C@@H]3O (stereo partly drawn) [dG-TUDCA] | > 100 µM | > 50 µM | > 50 µM |  |
| C#CCCCCC#Cc1nc2c(=O)[nH]c(N)nc2n1[C@@H]1O[C@H](CO)[C@@H](O)[C@H]1O [ALK-G, 8-(1,7-Octadynyl)-guanosine] | > 100 µM | > 50 µM | > 50 µM |  |
| CC(CCC(=O)NCCS(=O)(=O)O)[C@H]1CCC2C3C(CC[C@@]21C)[C@@]1(C)CC[C@@H](n2cc(CCCCC#Cc4nc5c(=O)[nH]c(N)nc5n4[C@@H]4O[C@H](CO)[C@@H](O)[C@H]4O)nn2)CC1C[C@@H]3O (stereo partly drawn) [G-TUDCA] | > 100 µM | > 50 µM | > 50 µM |  |
| CC(CCn1cc(CCCCC#Cc2nc3c(N)ncnc3n2C2OC(CO)C(O)C2O)nn1)C1CCC2C3C(O)CC4CC(O)CCC4(C)C3CCC12C (stereo not drawn) [A-nor-CDC] | > 100 µM | 44.1 ± 2.5 µM |  | IC50 [6, 10]: ≤ 25 µM and 23.6 µM |
| CC(CCn1cc(CCCCC#Cc2cn([C@H]3C[C@H](O)[C@@H](CO)O3)c(=O)[nH]c2=O)nn1)[C@H]1CCC2C3C(CC[C@@]21C)[C@@]1(C)CC[C@@H](O)CC1C[C@H]3O (stereo partly drawn) [dU-nor-CDC] | > 100 µM | > 50 µM | 42.9 ± 1.9 µM |  |
| COC(=O)CC[C@@H](C)[C@H]1CC[C@H]2[C@@H]3[C@H](O)C[C@@H]4C[C@H](N=[N+]=[N-])CC[C@]4(C)[C@H]3CC[C@]12C [3α-N3-CDC, methyl 3α-azido-7α-hydroxy-5β-cholan-24-oate] | > 100 µM | 31 ± 2.3 µM | 23 ± 2 µM | cytotoxicity towards fibroblast cells (in words) ([4]; 72 h): not active; cytotoxicity against HCT116 (in words) [5]: active; cytotoxicity against K562 (in words) ([6]; 72 h): active |
| COC(=O)CCC(C)C1CCC2C3C(O)CC4CC(n5cc(CCCCC#Cc6nc7c(N)ncnc7n6C6OC(CO)C(O)C6O)nn5)CCC4(C)C3CCC12C (stereo not drawn) [A-UDC] |  |  |  | IC50 [4]: > 100 µM; IC50 [5]: > 50 µM; IC50 [6, 10]: > 50 µM |
| CC(CCN=[N+]=[N-])[C@H]1CCC2C3C(CC[C@@]21C)[C@@]1(C)CC[C@@H](O)CC1C[C@@H]3O (stereo partly drawn) [23-N3-nor-UDC, 3α,7β-Dihydroxy-5β-23-azido-24-norcholane] | 81 ± 2 µM | 22 ± 1.4 µM | 15 ± 1 µM |  |
| COC(=O)CCC(C)[C@H]1CCC2C3C(CC[C@@]21C)[C@@]1(C)CC[C@@H](n2cc(CCCCC#Cc4nc5c(=O)[nH]c(N)nc5n4[C@@H]4O[C@H](CO)[C@@H](O)[C@H]4O)nn2)CC1C[C@@H]3O (stereo partly drawn) [G-UDC] | > 100 µM | > 50 µM | > 50 µM |  |
| CC(CCC(=O)NCCS(=O)(=O)O)[C@H]1CCC2C3C(CC[C@@]21C)[C@@]1(C)CC[C@@H](n2cc(CCCCC#Cc4nc5c(N)ncnc5n4[C@H]4C[C@H](O)[C@@H](CO)O4)nn2)CC1C[C@@H]3O (stereo partly drawn) [dA-TUDCA] | > 100 µM | > 50 µM | > 50 µM |  |
| CC(CCn1cc(CCCCC#Cc2nc3c(=O)[nH]c(N)nc3n2[C@@H]2O[C@H](CO)[C@@H](O)[C@H]2O)nn1)[C@H]1CCC2C3C(CC[C@@]21C)[C@@]1(C)CC[C@@H](O)CC1C[C@@H]3O (stereo partly drawn) [G-nor-UDC] | > 100 µM | > 50 µM | > 50 µM |  |
| CC(CCn1cc(CCCCC#Cc2nc3c(N)ncnc3n2[C@H]2C[C@H](O)[C@@H](CO)O2)nn1)[C@H]1CCC2C3C(CC[C@@]21C)[C@@]1(C)CC[C@@H](O)CC1C[C@@H]3O (stereo partly drawn) [dA-nor-UDC] | > 100 µM | 44.8 ± 3.5 µM | > 50 µM | IC50 ([6]; Homo sapiens, K562, 72 h, extrapolated beyond the highest tested concentration of 50 μM, 72 h, read-out: IC50 K562, extrapolated value): 87.1 µM |
| CC(CCn1cc(CCCCC#Cc2nc3c(=O)[nH]c(N)nc3n2[C@H]2C[C@H](O)[C@@H](CO)O2)nn1)[C@H]1CCC2C3C(CC[C@@]21C)[C@@]1(C)CC[C@@H](O)CC1C[C@@H]3O (stereo partly drawn) [dG-nor-UDC] | > 100 µM | > 50 µM | > 50 µM |  |
| CC(CCn1cc(CCCCC#Cc2cn([C@H]3C[C@H](O)[C@@H](CO)O3)c(=O)[nH]c2=O)nn1)[C@H]1CCC2C3C(CC[C@@]21C)[C@@]1(C)CC[C@@H](O)CC1C[C@@H]3O (stereo partly drawn) [dU-nor-UDC] | > 100 µM | 43 ± 3.5 µM | ≤ 25 µM | IC50 [6, 10]: 24.8 ± 1.5 µM |
| C#CCCCCC#Cc1nc2c(N)ncnc2n1[C@@H]1O[C@H](CO)[C@@H](O)[C@H]1O [ALK-A, 8-(1,7-Octadynyl)-adenosine] | > 100 µM | > 50 µM | > 50 µM |  |
| C#CCCCCC#Cc1nc2c(N)ncnc2n1[C@H]1C[C@H](O)[C@@H](CO)O1 [ALK-dA, 8-(1,7-Octadynyl)-2′-deoxyadenosine] |  |  |  | IC50 [1]: > 50 µM; IC50 [2]: > 50 µM; IC50 [3]: > 100 µM |
| COC(=O)CCC(C)[C@H]1CCC2C3C(CC[C@@]21C)[C@@]1(C)CC[C@@H](n2cc(CCCCC#Cc4nc5c(N)ncnc5n4[C@H]4C[C@H](O)[C@@H](CO)O4)nn2)CC1C[C@@H]3O (stereo partly drawn) [dA-UDC] |  |  |  | IC50 [1]: > 200 µM; IC50 [2]: > 100 µM; IC50 [3]: > 200 µM |
| CC(CCn1cc(CCCCC#Cc2nc3c(N)ncnc3n2[C@H]2C[C@H](O)[C@@H](CO)O2)nn1)[C@H]1CCC2C3C(CC[C@@]21C)[C@@]1(C)CC[C@@H](O)CC1C[C@H]3O (stereo partly drawn) [dA-nor-CDC] | ~100 µM | ≤ 25 µM | ≤ 25 µM | IC50 [4]: 91.5 ± 3.5 µM; induction of apoptosis (in words) [7]: induced apoptosis in a dose dependent manner; IC50 [5]: 17 ± 2.5 µM; IC50 [6, 10]: 16.2 ± 2.2 µM |
| COC(=O)CCC(C)C1CCC2C3C(O)CC4CC(n5cc(CCCCC#Cc6nc7c(N)ncnc7n6C6OC(CO)C(O)C6O)nn5)CCC4(C)C3CCC12C (stereo not drawn) [A-CDC] | > 100 µM |  | 43.5 ± 1.3 µM | IC50 [5]: ≤ 25 µM and 23.1 µM |

Reference: PMC6151511, “Rational Design of Nucleoside–Bile Acid Conjugates Incorporating a Triazole Moiety for Anticancer Evaluation and SAR Exploration” (Molecules : A Journal of Synthetic Chemistry and Natural …, 2017)
